The source of these data is patent US11021467B2, “Phosphatidylinositol 3-kinase inhibitors” (Gilead Sciences, Inc., priority 2014, dated 2021).

What all share (test): TR-FRET enzymatic activity assay against PI3K isoforms
What all share (type): biochemical

Experiment [1] addresses PI3Kβ (Homo sapiens (Human), UniProt P42338). The note with it: for IC50: PI3Kβ, TR-FRET, 2×Km ATP, 30 minutes at 25° C. From the text:
(§1) The compounds of formula (I) were characterized for their enzymatic activity against the PI3K isoforms. […] TR-FRET monitored the formation of 3,4,5-inositol triphosphate molecule that competed with fluorescently labeled PIP3 for binding to the GRP-1 pleckstrin homology domain protein.

For experiment [2], the target named is PI3Kγ (Homo sapiens (Human), UniProt P48736). The note with it: 2×Km ATP, 30 minutes at 25° C.
Text: as §1

Experiment [3] deals with PI3Kδ (Homo sapiens (Human), UniProt O00329). The note with it: 2×Km ATP, 30 minutes at 25° C.
Text: as §1

Chain of PI3Kδ (O00329 whole entry): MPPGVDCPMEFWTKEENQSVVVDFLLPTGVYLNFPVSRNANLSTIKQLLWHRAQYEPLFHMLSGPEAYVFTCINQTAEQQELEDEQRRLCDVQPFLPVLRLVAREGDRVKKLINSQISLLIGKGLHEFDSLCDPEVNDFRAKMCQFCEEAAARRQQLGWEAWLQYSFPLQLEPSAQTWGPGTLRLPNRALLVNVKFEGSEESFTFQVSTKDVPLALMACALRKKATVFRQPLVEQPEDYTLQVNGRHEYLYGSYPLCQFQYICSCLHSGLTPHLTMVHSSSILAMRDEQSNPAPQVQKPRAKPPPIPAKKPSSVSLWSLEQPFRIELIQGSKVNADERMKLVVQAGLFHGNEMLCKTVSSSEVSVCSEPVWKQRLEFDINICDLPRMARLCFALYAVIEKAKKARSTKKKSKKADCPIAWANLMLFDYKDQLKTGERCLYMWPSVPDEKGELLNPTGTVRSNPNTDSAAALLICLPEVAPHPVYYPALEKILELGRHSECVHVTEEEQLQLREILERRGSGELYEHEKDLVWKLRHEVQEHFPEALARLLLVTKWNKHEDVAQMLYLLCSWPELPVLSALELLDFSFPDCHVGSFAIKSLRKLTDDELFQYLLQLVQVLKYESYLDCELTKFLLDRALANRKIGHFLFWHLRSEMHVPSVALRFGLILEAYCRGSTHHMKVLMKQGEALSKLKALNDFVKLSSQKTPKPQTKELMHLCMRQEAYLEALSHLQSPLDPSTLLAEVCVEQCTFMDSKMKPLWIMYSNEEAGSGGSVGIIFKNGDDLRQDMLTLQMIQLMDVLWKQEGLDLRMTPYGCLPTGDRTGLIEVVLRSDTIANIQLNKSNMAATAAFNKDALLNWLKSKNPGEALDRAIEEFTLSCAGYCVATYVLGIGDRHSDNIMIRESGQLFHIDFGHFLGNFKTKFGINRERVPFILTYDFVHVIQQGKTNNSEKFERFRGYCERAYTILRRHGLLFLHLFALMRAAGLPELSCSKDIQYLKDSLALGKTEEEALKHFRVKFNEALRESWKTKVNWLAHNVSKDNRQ
Chain of PI3Kδ (P27986 whole entry partner): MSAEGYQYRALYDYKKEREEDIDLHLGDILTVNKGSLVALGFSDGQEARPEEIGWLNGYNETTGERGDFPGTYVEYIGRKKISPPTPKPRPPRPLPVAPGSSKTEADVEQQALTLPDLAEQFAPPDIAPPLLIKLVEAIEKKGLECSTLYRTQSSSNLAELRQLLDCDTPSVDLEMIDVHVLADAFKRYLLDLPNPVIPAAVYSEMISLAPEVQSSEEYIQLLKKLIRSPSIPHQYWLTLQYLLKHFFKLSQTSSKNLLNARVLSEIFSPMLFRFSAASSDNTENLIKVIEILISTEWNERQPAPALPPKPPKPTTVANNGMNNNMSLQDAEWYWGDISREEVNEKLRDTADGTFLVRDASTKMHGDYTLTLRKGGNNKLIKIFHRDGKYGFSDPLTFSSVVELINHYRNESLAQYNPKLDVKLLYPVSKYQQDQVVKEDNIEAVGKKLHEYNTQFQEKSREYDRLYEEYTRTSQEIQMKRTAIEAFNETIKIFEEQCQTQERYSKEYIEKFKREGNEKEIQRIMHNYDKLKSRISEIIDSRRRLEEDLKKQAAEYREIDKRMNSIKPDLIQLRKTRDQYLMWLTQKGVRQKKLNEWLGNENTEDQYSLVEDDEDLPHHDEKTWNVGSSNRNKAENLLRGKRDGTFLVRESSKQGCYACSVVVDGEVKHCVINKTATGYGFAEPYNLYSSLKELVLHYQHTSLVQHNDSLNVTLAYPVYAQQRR
Chain of PI3Kβ (P42338 whole entry, the tested form may be a part, canonical isoform): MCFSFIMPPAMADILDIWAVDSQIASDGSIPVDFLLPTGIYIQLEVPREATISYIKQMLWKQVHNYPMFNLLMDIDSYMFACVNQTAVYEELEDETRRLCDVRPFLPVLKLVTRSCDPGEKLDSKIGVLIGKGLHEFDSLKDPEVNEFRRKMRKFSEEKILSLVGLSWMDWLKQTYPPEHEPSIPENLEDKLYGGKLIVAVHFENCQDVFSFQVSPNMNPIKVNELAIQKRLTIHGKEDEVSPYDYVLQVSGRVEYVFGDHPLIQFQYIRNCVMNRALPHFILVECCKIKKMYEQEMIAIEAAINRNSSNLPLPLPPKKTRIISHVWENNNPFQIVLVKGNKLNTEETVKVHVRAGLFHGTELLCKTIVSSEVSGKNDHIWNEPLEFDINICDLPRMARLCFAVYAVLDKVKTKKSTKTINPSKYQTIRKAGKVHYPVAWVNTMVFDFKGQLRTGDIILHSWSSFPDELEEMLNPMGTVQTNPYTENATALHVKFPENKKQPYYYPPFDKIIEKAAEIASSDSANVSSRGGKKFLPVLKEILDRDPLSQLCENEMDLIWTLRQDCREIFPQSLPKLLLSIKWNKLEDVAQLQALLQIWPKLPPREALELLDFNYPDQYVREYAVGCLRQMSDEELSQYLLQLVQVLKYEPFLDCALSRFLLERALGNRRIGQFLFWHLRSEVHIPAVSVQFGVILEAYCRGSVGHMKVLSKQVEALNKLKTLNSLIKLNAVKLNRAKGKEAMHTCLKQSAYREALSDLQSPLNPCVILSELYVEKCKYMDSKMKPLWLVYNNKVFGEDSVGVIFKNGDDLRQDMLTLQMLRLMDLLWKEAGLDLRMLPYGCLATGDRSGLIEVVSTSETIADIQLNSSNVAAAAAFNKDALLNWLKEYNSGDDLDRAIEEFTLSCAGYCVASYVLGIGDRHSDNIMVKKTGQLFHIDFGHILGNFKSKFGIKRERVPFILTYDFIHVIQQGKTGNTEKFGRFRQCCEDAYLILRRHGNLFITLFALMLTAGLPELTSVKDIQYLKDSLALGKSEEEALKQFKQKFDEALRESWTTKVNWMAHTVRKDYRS
Chain of PI3Kβ (P27986 whole entry partner, the tested form may be a part, canonical isoform): as the sequence (P27986 whole entry partner) above
Chain of PI3Kγ (P48736 whole entry): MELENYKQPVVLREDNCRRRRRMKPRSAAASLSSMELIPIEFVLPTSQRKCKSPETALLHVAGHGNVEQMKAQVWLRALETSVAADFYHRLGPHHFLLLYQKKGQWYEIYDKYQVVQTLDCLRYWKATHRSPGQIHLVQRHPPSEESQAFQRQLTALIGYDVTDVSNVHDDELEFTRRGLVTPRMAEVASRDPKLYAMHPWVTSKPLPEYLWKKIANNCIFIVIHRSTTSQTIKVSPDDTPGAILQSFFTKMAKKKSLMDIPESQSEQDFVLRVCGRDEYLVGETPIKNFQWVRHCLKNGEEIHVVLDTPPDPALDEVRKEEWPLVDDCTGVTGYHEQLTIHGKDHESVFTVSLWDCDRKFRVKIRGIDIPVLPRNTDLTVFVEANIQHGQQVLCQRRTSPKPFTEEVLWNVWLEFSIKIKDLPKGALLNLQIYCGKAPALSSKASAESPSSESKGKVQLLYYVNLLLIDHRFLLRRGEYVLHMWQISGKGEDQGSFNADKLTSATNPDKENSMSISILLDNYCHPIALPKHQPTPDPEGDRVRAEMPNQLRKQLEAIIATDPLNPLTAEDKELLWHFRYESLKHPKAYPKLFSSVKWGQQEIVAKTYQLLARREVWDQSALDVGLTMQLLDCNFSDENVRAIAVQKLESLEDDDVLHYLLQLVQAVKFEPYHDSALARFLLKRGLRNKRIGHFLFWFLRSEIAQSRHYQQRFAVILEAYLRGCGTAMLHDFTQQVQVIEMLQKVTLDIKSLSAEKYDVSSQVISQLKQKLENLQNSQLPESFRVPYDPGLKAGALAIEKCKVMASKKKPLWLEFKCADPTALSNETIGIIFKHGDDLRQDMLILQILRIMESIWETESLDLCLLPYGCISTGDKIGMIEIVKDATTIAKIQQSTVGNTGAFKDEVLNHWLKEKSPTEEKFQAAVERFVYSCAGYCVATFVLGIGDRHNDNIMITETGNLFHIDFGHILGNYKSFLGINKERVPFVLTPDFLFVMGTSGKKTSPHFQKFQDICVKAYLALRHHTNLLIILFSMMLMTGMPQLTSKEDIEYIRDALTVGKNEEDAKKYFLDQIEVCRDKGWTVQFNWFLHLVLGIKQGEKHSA

On to `C[C@H](Nc1nc(N)nc(N)c1C#N)c1nc2cccc(Cl)c2c(=O)n1CCCN` [Compound 42, (S)-2,4-diamino-6-((1-(3-(3-aminopropyl)-5-chloro-4-oxo-3,4-dihydroquinazolin-2-yl)ethyl)amino)pyrimidine-5-carbonitrile], for which the IC50 in experiment [1] turned out to be 15 nM; in experiment [2], 1400 nM; in experiment [3], 2 nM.
Taken in the same sequence, the figures for `NCCCn1c([C@@H](Nc2ncnc3[nH]cc(Br)c23)C2CC2)nc2cccc(Cl)c2c1=O` [Compound 43, (S)-3-(3-aminopropyl)-2-(((5-bromo-7H-pyrrolo[2,3-d]pyrimidin-4-yl)amino)(cyclopropyl)methyl)-5-chloroquinazolin-4(3H)-one] were 7 nM, 3400 nM and 6 nM.
Taken in the same sequence, the figures for `N#Cc1c(Cl)nc(N)nc1N[C@H](c1nc2cccc(Cl)c2c(=O)n1CCCN)C1CC1` [Compound 44, (S)-2-amino-4-(((3-(3-aminopropyl)-5-chloro-4-oxo-3,4-dihydroquinazolin-2-yl)(cyclopropyl)methyl)amino)-6-chloropyrimidine-5-carbonitrile] were 8 nM, 6000 nM and 11 nM.
On the same counts, the results for `NCCCn1c([C@@H](Nc2ncnc3scnc23)C2CC2)nc2cccc(Cl)c2c1=O` [Compound 45, (S)-3-(3-aminopropyl)-5-chloro-2-(cyclopropyl(thiazolo[5,4-d]pyrimidin-7-ylamino)methyl)quinazolin-4(3H)-one] are 7 nM, 2100 nM and 4 nM.
For the molecule `CNCCCn1c([C@@H](Nc2nc(N)nc(N)c2C#N)C2CC2)nc2cccc(Cl)c2c1=O` [Compound 46, (S)-2,4-diamino-6-(((5-chloro-3-(3-(methylamino)propyl)-4-oxo-3,4-dihydroquinazolin-2-yl)(cyclopropyl)methyl)amino)pyrimidine-5-carbonitrile], the 50% inhibitory concentration (IC50) in experiment [1] came out at 6 nM; in experiment [2], 2500 nM; in experiment [3] it was 3 nM.
Regarding `N#Cc1c(N)nc(N)nc1N[C@H](c1nc2cccc(Cl)c2c(=O)n1CCCN)C1CC1` [Compound 47, (S)-2,4-diamino-6-(((3-(3-aminopropyl)-5-chloro-4-oxo-3,4-dihydroquinazolin-2-yl)(cyclopropyl)methyl)amino)pyrimidine-5-carbonitrile], the IC50 turned out to be 5 nM in experiment [1], 1100 nM in experiment [2] and 3 nM in experiment [3]. The PI3Kγ/PI3Kβ ratio in experiment [1] (ratio of IC50 values, selectivity for PI3Kβ over PI3Kγ) stood at 230.
For the molecule `NCCCn1c([C@@H](Nc2ncnc3ccc(Cl)nc23)C2CC2)nc2cccc(Cl)c2c1=O` [Compound 48, (S)-3-(3-aminopropyl)-5-chloro-2-(((6-chloropyrido[3,2-d]pyrimidin-4-yl)amino)(cyclopropyl)methyl)quinazolin-4(3H)-one], the 50% inhibitory concentration (IC50) in experiment [1] stood at 4 nM; in experiment [2] it was 900 nM; in experiment [3], 4 nM.
Take `Cc1nc(N)nc(N[C@H](c2nc3cccc(Cl)c3c(=O)n2CCCN)C2CC2)c1C#N` [Compound 49, (S)-2-amino-4-(((3-(3-aminopropyl)-5-chloro-4-oxo-3,4-dihydroquinazolin-2-yl)(cyclopropyl)methyl)amino)-6-methylpyrimidine-5-carbonitrile]: the IC50 is 1 nM in experiment [1], 750 nM in experiment [2] and 1 nM in experiment [3].
Consider `C[C@H](NC(=O)c1nc(Br)c(N)nc1N)c1nc2cccc(Cl)c2c(=O)n1CCCN` [Compound 50, (S)-3,5-diamino-N-(1-(3-(3-aminopropyl)-5-chloro-4-oxo-3,4-dihydroquinazolin-2-yl)ethyl)-6-bromopyrazine-2-carboxamide], for which the values for the IC50 in experiment [1], in experiment [2] and in experiment [3] were 75 nM, 4600 nM and 71 nM, respectively.
On to `CC(=O)NCCCn1c([C@H](C)Nc2ncnc(N)c2C#N)nc2cccc(Cl)c2c1=O` [Compound 51, (S)—N-(3-(2-(1-((6-amino-5-cyanopyrimidin-4-yl)amino)ethyl)-5-chloro-4-oxoquinazolin-3(4H)-yl)propyl)acetamide], for which the IC50 in experiment [1] came to 110 nM; in experiment [2], 5500 nM; in experiment [3] it was 8 nM.
`CC(C)(C)C(=O)NCCCn1c([C@@H](Nc2nc(N)nc(N)c2C#N)C2CC2)nc2cccc(Cl)c2c1=O` [Compound 52, (S)—N-(3-(5-chloro-2-(cyclopropyl((2,6-diamino-5-cyanopyrimidin-4-yl)amino)methyl)-4-oxoquinazolin-3(4H)-yl)propyl)pivalamide]: the IC50 turned out to be 29 nM in experiment [1], 1200 nM in experiment [2] and 4 nM in experiment [3].
Taken in the same sequence, the figures for `CC(=O)NCCCn1c([C@@H](Nc2nc(N)nc(N)c2C#N)C2CC2)nc2cccc(Cl)c2c1=O` [Compound 53, (S)—N-(3-(5-chloro-2-(cyclopropyl((2,6-diamino-5-cyanopyrimidin-4-yl)amino)methyl)-4-oxoquinazolin-3(4H)-yl)propyl)acetamide] were 9 nM, 190 nM and 2 nM.
Regarding `N#Cc1c(N)nc(N)nc1N[C@H](c1nc2cccc(Cl)c2c(=O)n1CCCNC1CCC1)C1CC1` [Compound 54, (S)-2,4-diamino-6-(((5-chloro-3-(3-(cyclobutylamino)propyl)-4-oxo-3,4-dihydroquinazolin-2-yl)(cyclopropyl)methyl)amino)pyrimidine-5-carbonitrile], the IC50 was 5 nM in experiment [1], 830 nM in experiment [2] and 0.4 nM in experiment [3].
`N#Cc1c(N)nc(N)nc1N[C@H](c1nc2cccc(Cl)c2c(=O)n1CCCNC1COC1)C1CC1` [Compound 55, (S)-2,4-diamino-6-(((5-chloro-3-(3-(oxetan-3-ylamino)propyl)-4-oxo-3,4-dihydroquinazolin-2-yl)(cyclopropyl)methyl)amino)pyrimidine-5-carbonitrile]: the IC50 in experiment [1] is 4 nM; in experiment [2], 280 nM; in experiment [3] it was 0.5 nM.
On the same counts, the results for `N#Cc1c(N)nc(N)nc1N[C@H](c1nc2cccc(Cl)c2c(=O)n1CCCNC1CCC(F)(F)CC1)C1CC1` [Compound 56, (S)-2,4-diamino-6-(((5-chloro-3-(3-((4,4-difluorocyclohexyl)amino)propyl)-4-oxo-3,4-dihydroquinazolin-2-yl)(cyclopropyl)methyl)amino)pyrimidine-5-carbonitrile] are 4 nM, 540 nM and 0.4 nM.
Turning to `C[C@H](Nc1ncnc(N)c1C#N)c1nc2cccc(Cl)c2c(=O)n1CCCN(C)C` [Compound 57, (S)-4-amino-6-((1-(5-chloro-3-(3-(dimethylamino)propyl)-4-oxo-3,4-dihydroquinazolin-2-yl)ethyl)amino)pyrimidine-5-carbonitrile], the IC50 is 480 nM in experiment [1], ≥ 10000 nM in experiment [2] and 6 nM in experiment [3].
Taken in the same sequence, the figures for `C[C@H](Nc1nc(N)nc(N)c1C#N)c1nc2cccc(Cl)c2c(=O)n1CCN(C)C` [Compound 58, (S)-2,4-diamino-6-((1-(5-chloro-3-(2-(dimethylamino)ethyl)-4-oxo-3,4-dihydroquinazolin-2-yl)ethyl)amino)pyrimidine-5-carbonitrile] were 460 nM, 6600 nM and 24 nM.
Taken in the same sequence, the figures for `NC(=O)CCCCn1c([C@@H](Nc2nc(N)nc(N)c2Cl)C2CC2)nc2cccc(Cl)c2c1=O` [Compound 59, (S)-5-(5-chloro-2-(cyclopropyl((2,6-diamino-5-chloropyrimidin-4-yl)amino)methyl)-4-oxoquinazolin-3(4H)-yl)pentanamide] were 500 nM, 2200 nM and 8 nM.
On the same counts, the results for `C[C@H](Nc1nc(N)nc(N)c1C#N)c1nc2cccc(Cl)c2c(=O)n1CCCN(C)Cc1ccccc1` [Compound 60, (S)-2,4-diamino-6-((1-(3-(3-(benzyl(methyl)amino)propyl)-5-chloro-4-oxo-3,4-dihydroquinazolin-2-yl)ethyl)amino)pyrimidine-5-carbonitrile] are 150 nM, 6400 nM and 4 nM.
For `Cc1nc(N)nc(N[C@@H](C)c2nc3cccc(Cl)c3c(=O)n2CCCN(C)Cc2ccccc2)c1C#N` [Compound 61, (S)-2-amino-4-((1-(3-(3-(benzyl(methyl)amino)propyl)-5-chloro-4-oxo-3,4-dihydroquinazolin-2-yl)ethyl)amino)-6-methylpyrimidine-5-carbonitrile], the IC50 in experiment [1] stood at 140 nM; in experiment [2], 6600 nM; in experiment [3], 7 nM.
Taken in the same sequence, the figures for `C[C@H](Nc1nc(N)nc(N)c1C#N)c1nc2cccc(Cl)c2c(=O)n1CCCN(C)CC(F)(F)F` [Compound 62, (S)-2,4-diamino-6-((1-(5-chloro-3-(3-(methyl(2,2,2-trifluoroethyl)amino)propyl)-4-oxo-3,4-dihydroquinazolin-2-yl)ethyl)amino)pyrimidine-5-carbonitrile] were 320 nM, 960 nM and 4 nM.
Regarding `N#CCCn1c([C@@H](Nc2nc(N)nc(N)c2Cl)C2CC2)nc2cccc(Cl)c2c1=O` [Compound 63, (S)-3-(5-chloro-2-(cyclopropyl((2,6-diamino-5-chloropyrimidin-4-yl)amino)methyl)-4-oxoquinazolin-3(4H)-yl)propanenitrile], the IC50 in experiment [1] worked out at 640 nM; in experiment [2], 800 nM; in experiment [3], 2 nM.
In the case of `N#Cc1c(N)nc(N)nc1N[C@H](c1nc2cccc(Cl)c2c(=O)n1CCCCC(N)=O)C1CC1` [Compound 64, (S)-5-(5-chloro-2-(cyclopropyl((2,6-diamino-5-cyanopyrimidin-4-yl)amino)methyl)-4-oxoquinazolin-3(4H)-yl)pentanamide], the IC50 is 12 nM in experiment [1], 110 nM in experiment [2] and 1 nM in experiment [3].
